Reference: US20260325533A1, “CDK INHIBITOR COMPOUNDS” (ALEKSIA THERAPEUTICS, INC., priority 2023, published 2026)
Where two headings read alike, the source gives them in different places.

What was measured:
Format in all cases: biochemical
CDK4/CCND3 = CDK4/CCND3 (Homo sapiens, UniProt P11802); assay: CDK4 homogeneous time-resolved fluorescence (HTRF) kinase assay; conditions: CDK4/CCND
Procedure, shortened: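 TR-FRET read (665 nm, or 665/615 ratio) of 4E-BP1 Thr37/46 phosphorylation by 1.5 nM CDK4/CCND3 at 1 mM ATP, 50 nM ULight peptide, 1% DMSO. Reaction ran 60 min at 23 °C after 20 min compound–enzyme preincubation. IC50 from 11-point half-log dilutions, top 10 μM.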

CDK6/CCND1 = CDK6/CCND1 (Homo sapiens, UniProt Q00534); assay: CDK6 homogeneous time-resolved fluorescence (HTRF) kinase assay; conditions: CDK6/CCND
Chain of CDK6/CCND1 (Q00534 whole entry): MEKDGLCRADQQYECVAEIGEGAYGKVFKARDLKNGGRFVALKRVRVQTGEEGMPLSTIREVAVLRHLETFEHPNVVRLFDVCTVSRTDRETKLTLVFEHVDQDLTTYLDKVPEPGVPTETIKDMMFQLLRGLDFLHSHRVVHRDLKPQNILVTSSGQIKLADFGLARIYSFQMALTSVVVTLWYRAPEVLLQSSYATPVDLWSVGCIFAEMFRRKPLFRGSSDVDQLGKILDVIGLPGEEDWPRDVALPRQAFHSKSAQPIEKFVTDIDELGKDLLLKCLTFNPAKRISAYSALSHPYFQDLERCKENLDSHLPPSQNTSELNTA
Chain of CDK6/CCND1 (P24385 whole entry partner): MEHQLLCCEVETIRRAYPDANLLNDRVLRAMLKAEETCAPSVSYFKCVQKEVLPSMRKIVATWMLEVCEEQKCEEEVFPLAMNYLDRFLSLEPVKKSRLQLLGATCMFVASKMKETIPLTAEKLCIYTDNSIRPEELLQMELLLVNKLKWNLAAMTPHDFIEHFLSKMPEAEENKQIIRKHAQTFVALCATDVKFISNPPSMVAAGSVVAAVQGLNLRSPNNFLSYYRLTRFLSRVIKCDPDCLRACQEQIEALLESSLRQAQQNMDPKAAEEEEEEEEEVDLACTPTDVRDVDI
Procedure, shortened: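 Assay conditions: HEPES buffer containing 10 mM MgCl2, 1 mM EGTA, 2 mM DTT, 0.01% Tween 20; 1 nM CDK6/CCND1, 50 nM peptide substrate, 1 mM ATP. Detection after 60 min reaction used 2 nM europium antibody with 340 nm excitation. Potency fitted from half-log series, 11 points.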

CDK1/CCNB1 = CDK1/CCNB1 (Homo sapiens, UniProt P06493); assay: CDK1 homogeneous time-resolved fluorescence (HTRF) kinase assay; conditions: CDK1/CCNB
Chain of CDK1/CCNB1 (P06493 whole entry): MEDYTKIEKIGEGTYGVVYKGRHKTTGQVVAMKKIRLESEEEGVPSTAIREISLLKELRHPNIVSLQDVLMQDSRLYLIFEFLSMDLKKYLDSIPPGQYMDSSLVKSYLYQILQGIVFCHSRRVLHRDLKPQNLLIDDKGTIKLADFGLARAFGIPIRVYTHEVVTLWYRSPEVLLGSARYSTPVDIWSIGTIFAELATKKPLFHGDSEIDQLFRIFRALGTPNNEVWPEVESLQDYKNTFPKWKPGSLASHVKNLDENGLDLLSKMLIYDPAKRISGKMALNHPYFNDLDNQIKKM
Chain of CDK1/CCNB1 (P14635 whole entry partner): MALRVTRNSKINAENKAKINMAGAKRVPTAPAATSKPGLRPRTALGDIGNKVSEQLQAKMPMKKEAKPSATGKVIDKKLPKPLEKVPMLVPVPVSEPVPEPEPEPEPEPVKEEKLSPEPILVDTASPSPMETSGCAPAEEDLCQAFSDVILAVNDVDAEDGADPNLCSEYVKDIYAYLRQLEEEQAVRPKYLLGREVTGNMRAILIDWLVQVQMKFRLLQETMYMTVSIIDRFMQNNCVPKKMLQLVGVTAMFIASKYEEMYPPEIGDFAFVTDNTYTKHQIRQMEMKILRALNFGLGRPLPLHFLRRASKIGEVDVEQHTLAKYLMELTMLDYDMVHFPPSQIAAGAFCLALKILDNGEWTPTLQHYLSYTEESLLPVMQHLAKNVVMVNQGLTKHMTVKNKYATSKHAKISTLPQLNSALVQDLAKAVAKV
Procedure, shortened: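 Read-out: TR-FRET (Eu anti-phospho-4E-BP1 Thr37/46 antibody, 2 nM; 665 nm or 665/615 ratio) after 60 min phosphorylation of 50 nM ULight-peptide by 0.5 nM CDK1/CCNB1 at 1 mM ATP, 23 °C. Compound preincubated 20 min with enzyme; 1% DMSO.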

CDK2/CCNE1 = CDK2/CCNE1 (Homo sapiens, UniProt P24941); assay: CDK2 homogeneous time-resolved fluorescence (HTRF) kinase assay; conditions: CDK2/CCNE
Procedure, shortened: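 An HTRF format measures CDK2/CCNE1 (3 nM) phosphorylating a 4E-BP1 Thr37/46 peptide at high (1 mM) ATP. Reactions run one hour at 23 °C, then EDTA-quenched and probed with Eu-labelled phospho-specific antibody.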

[1] = >250 nM, read-out: CDK1/CCNB IC50 >250 nM
[2] = >250 nM, read-out: CDK4/CCND IC50, >250 nM
[3] = >250 nM, 1 mM ATP, read-out: CDK6/CCND IC50, >250 nM
[4] = 25-250 nM, read-out: CDK2/CCNE IC50, 25-250 nM
[5] = x = IC50 >250 nM, read-out: CDK4/CCND IC50 (>250 nM column)
[6] = x = IC50 >250 nM, read-out: CDK6/CCND IC50 (>250 nM column)
[7] = x = IC50 >250 nM, read-out: CDK1/CCNB IC50 (>250 nM column)
[8] = x = IC50 25-250 nM, read-out: CDK2/CCNE IC50 (25-250 nM)
[9] = 25-250 nM marked x, read-out: CDK4/CCND IC50 25-250 nM
[10] = 25-250 nM marked x, read-out: CDK6/CCND IC50 25-250 nM
[11] = >250 nM marked x, read-out: CDK1/CCNB IC50 >250 nM
[12] = <25 nM, read-out: CDK2/CCNE IC50 <25 nM

Chain of CDK4/CCND3 (P11802 whole entry): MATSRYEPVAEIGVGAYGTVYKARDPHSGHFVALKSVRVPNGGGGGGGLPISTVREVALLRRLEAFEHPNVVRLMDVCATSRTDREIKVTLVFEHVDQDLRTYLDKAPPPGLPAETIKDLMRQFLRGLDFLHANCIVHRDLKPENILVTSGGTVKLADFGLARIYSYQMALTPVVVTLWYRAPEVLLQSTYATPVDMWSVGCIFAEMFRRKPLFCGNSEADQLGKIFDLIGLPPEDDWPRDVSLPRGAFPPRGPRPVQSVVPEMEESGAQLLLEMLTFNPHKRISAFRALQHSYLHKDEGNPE
Chain of CDK4/CCND3 (P30281 whole entry partner): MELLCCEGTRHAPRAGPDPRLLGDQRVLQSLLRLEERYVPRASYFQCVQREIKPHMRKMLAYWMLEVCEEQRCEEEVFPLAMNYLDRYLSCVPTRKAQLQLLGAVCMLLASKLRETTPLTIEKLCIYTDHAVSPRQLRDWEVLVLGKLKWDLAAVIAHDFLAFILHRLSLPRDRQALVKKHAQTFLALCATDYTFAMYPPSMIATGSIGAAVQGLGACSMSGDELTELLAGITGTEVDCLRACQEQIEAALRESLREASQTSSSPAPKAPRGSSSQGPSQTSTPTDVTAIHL

| IC50 (CDK1/CCNB1; [1]) [µM] | IC50 (CDK4/CCND3; [2]) [µM] | IC50 (CDK6/CCND1; [3]) [µM] | IC50 (CDK2/CCNE1; [4]) [µM] | IC50 (CDK4/CCND3; [5]) [µM] | IC50 (CDK6/CCND1; [6]) [µM] | IC50 (CDK1/CCNB1; [7]) [µM] | IC50 (CDK1/CCNB1; [11]) [µM] | SMILES | other results |
| --- | --- | --- | --- | --- | --- | --- | --- | --- | --- |
| > 0.25 | – | – | – | – | – | – | – | Cc1c(-c2nccc3cnc(Nc4ccc(S(=O)(=O)N[C@@H](C)CCO)cc4)cc23)ccc2c1cnn2CC(C)(C)O [Ex 746, (S)-4-((5-(1-(2-hydroxy-2-methylpropyl)-4-methyl-1H-indazol-5-yl)-2,6-naphthyridin-3-yl)amino)-N-(4-hydroxybutan-2-yl)benzenesulfonamide] | IC50 (CDK4/CCND3; 25-250 nM, read-out: CDK4/CCND IC50, 25-250 nM): 0.025 to 0.25 µM; IC50 (CDK6/CCND1; 25-250 nM, 1 mM ATP, read-out: CDK6/CCND IC50, 25-250 nM): 0.025 to 0.25 µM; IC50 (CDK2/CCNE1; <25 nM, read-out: CDK2/CCNE IC50, <25 nM): < 0.025 µM |
| > 0.25 | > 0.25 | > 0.25 | 0.025 to 0.25 | – | – | – | – | Cc1c(-c2nccc3cnc(Nc4ccc(S(=O)(=O)NCC(F)(F)F)cc4)cc23)ccc2c1cnn2CC(O)(C(F)(F)F)C(F)(F)F [Ex 684, 4-((5-(4-methyl-1-(3,3,3-trifluoro-2-hydroxy-2-(trifluoromethyl)propyl)-1H-indazol-5-yl)-2,6-naphthyridin-3-yl)amino)-N-(2,2,2-trifluoroethyl)benzenesulfonamide] | – |
| > 0.25 | > 0.25 | > 0.25 | 0.025 to 0.25 | – | – | – | – | Cc1c(-c2nccc3cnc(Nc4ccc(S(=O)(=O)Nc5nc(C(F)(F)F)cc(C(F)(F)F)n5)cc4)cc23)ccc2c1cnn2CC(C)(C)O [Example 789, N-(4,6-bis(trifluoromethyl)pyrimidin-2-yl)-4-((5-(1-(2-hydroxy-2-methylpropyl)-4-methyl-1H-indazol-5-yl)-2,6-naphthyridin-3yl)amino)benzenesulfonamide] | – |
| – | – | – | – | > 0.25 | > 0.25 | > 0.25 | – | COc1ncccc1C#Cc1nccc2cnc(Nc3ccc(S(C)(=O)=O)cc3)cc12 [Ex 579, 5-((2-methoxypyridin-3-yl)ethynyl)-N-(4-(methylsulfonyl)phenyl)-2,6-naphthyridin-3-amine] | IC50 (CDK2/CCNE1; [8]): 0.025 to 0.25 µM |
| – | – | – | – | > 0.25 | > 0.25 | > 0.25 | – | CS(=O)(=O)c1ccc(Nc2cc3c(C#CC(O)CO)nccc3cn2)cc1 (racemic) [Ex 477, 4-(7-((4-(methylsulfonyl)phenyl)amino)-2,6-naphthyridin-1-yl)but-3-yne-1,2-diol] | IC50 (CDK2/CCNE1; x = IC50 <25 nM, read-out: CDK2/CCNE IC50 (<25 nM)): < 0.025 µM |
| – | – | – | – | > 0.25 | > 0.25 | > 0.25 | – | CS(=O)(=O)c1ccc(Nc2cc3c(-c4ccc5nn(CCO)cc5c4)nccc3cn2)cc1 [Ex 639, 2-(5-(7-((4-(methylsulfonyl)phenyl)amino)-2,6-naphthyridin-1-yl)-2H-indazol-2-yl)ethan-1-ol] | IC50 (CDK2/CCNE1; [8]): 0.025 to 0.25 µM |
| – | – | – | – | – | – | – | > 0.25 | Cc1c(-c2nccc3cnc(Nc4ccc(S(C)(=O)=O)cc4)cc23)ccc2nn(C)cc12 [Ex 166, 5-(2,4-dimethyl-2H-indazol-5-yl)-N-(4-(methylsulfonyl)phenyl)-2,6-naphthyridin-3-amine] | IC50 (CDK4/CCND3; [9]): 0.025 to 0.25 µM; IC50 (CDK6/CCND1; [10]): 0.025 to 0.25 µM; IC50 (CDK2/CCNE1; [12]): < 0.025 µM |
| > 0.25 | > 0.25 | > 0.25 | 0.025 to 0.25 | – | – | – | – | CS(=O)(=O)c1ccc(Nc2cc3c(C#Cc4ccc(F)nc4)nccc3cn2)cc1 [Ex 874, 5-((6-fluoropyridin-3-yl)ethynyl)-N-(4-(methylsulfonyl)phenyl)-2,6-naphthyridin-3-amine] | – |
| – | – | – | – | – | – | – | > 0.25 | CCC1(CC)C(=O)Nc2cc(C#Cc3nccc4cnc(Nc5ccc(S(=N)(=O)C(C)C)cc5OC)cc34)ccc21 (single isomer, unassigned) [Ex 340, 3,3-diethyl-6-((7-((2-methoxy-4-(propan-2-ylsulfonimidoyl)phenyl)amino)-2,6-naphthyridin-1-yl)ethynyl)indolin-2-one] | IC50 (CDK4/CCND3; >250 nM marked x, read-out: CDK4/CCND IC50 >250 nM): > 0.25 µM; IC50 (CDK6/CCND1; >250 nM marked x, read-out: CDK6/CCND IC50 >250 nM): > 0.25 µM; IC50 (CDK2/CCNE1; [12]): < 0.025 µM |
| – | – | – | – | – | – | – | > 0.25 | CN(c1nccc2cnc(NC3CCN(S(C)(=O)=O)CC3)cc12)C1CC1 [Ex 46, N1-cyclopropyl-N1-methyl-N7-(1-(methylsulfonyl)piperidin-4-yl)-2,6-naphthyridine-1,7-diamine] | IC50 (CDK4/CCND3; [9]): 0.025 to 0.25 µM; IC50 (CDK6/CCND1; [10]): 0.025 to 0.25 µM; IC50 (CDK2/CCNE1; 25-250 nM marked x, read-out: CDK2/CCNE IC50 25-250 nM): 0.025 to 0.25 µM |
